Laboratory results reported in ChEMBL document CHEMBL1201862, “PubChem BioAssay data set” (2004).
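Where inhibition never reached the appropriate level, the endpoint shown equals the highest concentration tested. Otherwise, values were interpolated linearly from a five-concentration, 48-hour dose response in 96-well plates. The concentration for 50% growth inhibition is given as GI50.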 Active and inactive are the calls of the source. No stated cut-off is given here; in the data, active = GI50 up to about 1.1 µM and inactive = higher.

Experiments:
Experiment in all cases: NCI anticancer screen, dose series, 48 h
OVCAR-8 = tested on: OVCAR-8
OVCAR-5 = tested on: OVCAR-5
NCI-H226 = tested on: NCI-H226
HCC 2998 = tested on: HCC 2998
BT-549 = tested on: BT-549
K562 = tested on: K562
SK-MEL-5 = tested on: SK-MEL-5
SR = tested on: SR
SF-268 = tested on: SF-268
SK-MEL-28 = tested on: SK-MEL-28
SK-MEL-2 = tested on: SK-MEL-2
OVCAR-4 = tested on: OVCAR-4
HCT-15 = tested on: HCT-15
M14 = tested on: M14
SW-620 = tested on: SW-620
KM12 = tested on: KM12
A549 = tested on: A549
SF-539 = tested on: SF-539
U-251 = tested on: U-251
SNB-19 = tested on: SNB-19
COLO 205 = tested on: COLO 205
LOX IMVI = tested on: LOX IMVI
DU-145 = tested on: DU-145
PC-3 = tested on: PC-3
SF-295 = tested on: SF-295
NCI/ADR-RES = tested on: NCI/ADR-RES
UACC-257 = tested on: UACC-257
HL-60 = tested on: HL-60
786-0 = tested on: 786-0
Malme-3M = tested on: Malme-3M
NCI-H460 = tested on: NCI-H460
IGROV-1 = tested on: IGROV-1
HOP-92 = tested on: HOP-92
OVCAR-3 = tested on: OVCAR-3
MOLT-4 = tested on: MOLT-4
SK-OV-3 = tested on: SK-OV-3
NCI-H23 = tested on: NCI-H23
EKVX = tested on: EKVX
SNB-75 = tested on: SNB-75
HCT-116 = tested on: HCT-116
NCI-H522 = tested on: NCI-H522
HOP-62 = tested on: HOP-62
CAKI-1 = tested on: CAKI-1
MDA-MB-231 = tested on: MDA-MB-231
RXF 393 = tested on: RXF 393
MCF7 = tested on: MCF7
UO-31 = tested on: UO-31
T47D = tested on: T47D
MDA-N = tested on: MDA-N
A498 = tested on: A498
UACC-62 = tested on: UACC-62
Hs-578T = tested on: Hs-578T
MDA-MB-435 = tested on: MDA-MB-435
SN12C = tested on: SN12C
RPMI-8226 = tested on: RPMI-8226
ACHN = tested on: ACHN
TK-10 = tested on: TK-10
HT-29 = tested on: HT-29

## O=C(O)C1CC=CCC1C(=O)Nc1cccc(O)c1 (stereo not drawn)
OVCAR-8
  GI50: > 100 µM (inactive)
OVCAR-5
  GI50: > 100 µM (inactive)
NCI-H226
  GI50: > 100 µM (inactive)
HCC 2998
  GI50: > 100 µM (inactive)
BT-549
  GI50: > 100 µM (inactive)
K562
  GI50: > 100 µM (inactive)
SK-MEL-5
  GI50: > 100 µM (inactive)
SR
  GI50: > 100 µM (inactive)
SF-268
  GI50: > 100 µM (inactive)
SK-MEL-28
  GI50: > 100 µM (inactive)
SK-MEL-2
  GI50: > 100 µM (inactive)
OVCAR-4
  GI50: > 100 µM (inactive)
HCT-15
  GI50: > 100 µM
M14
  GI50: > 100 µM (inactive)
SW-620
  GI50: > 100 µM (inactive)
KM12
  GI50: > 100 µM (inactive)
A549
  GI50: > 100 µM (inactive)
SF-539
  GI50: > 100 µM (inactive)
U-251
  GI50: > 100 µM (inactive)
SNB-19
  GI50: > 100 µM (inactive)
COLO 205
  GI50: > 100 µM (inactive)
LOX IMVI
  GI50: > 100 µM (inactive)
DU-145
  GI50: > 100 µM (inactive)
PC-3
  GI50: > 100 µM (inactive)
SF-295
  GI50: > 100 µM (inactive)
NCI/ADR-RES
  GI50: > 100 µM (inactive)
UACC-257
  GI50: > 100 µM (inactive)
HL-60
  GI50: > 100 µM (inactive)
786-0
  GI50: > 100 µM (inactive)
Malme-3M
  GI50: > 100 µM (inactive)
NCI-H460
  GI50: > 100 µM (inactive)
IGROV-1
  GI50: > 100 µM (inactive)
HOP-92
  GI50: > 100 µM (inactive)
OVCAR-3
  GI50: > 100 µM (inactive)
MOLT-4
  GI50: > 100 µM (inactive)
SK-OV-3
  GI50: > 100 µM (inactive)
NCI-H23
  GI50: > 100 µM (inactive)
EKVX
  GI50: > 100 µM (inactive)
SNB-75
  GI50: > 100 µM (inactive)
HCT-116
  GI50: > 100 µM (inactive)
NCI-H522
  GI50: > 100 µM (inactive)
HOP-62
  GI50: > 100 µM (inactive)
CAKI-1
  GI50: > 100 µM (inactive)
MDA-MB-231
  GI50: > 100 µM (inactive)
RXF 393
  GI50: > 100 µM (inactive)
MCF7
  GI50: > 100 µM (inactive)
UO-31
  GI50: > 100 µM (inactive)
T47D
  GI50: > 100 µM (inactive)
MDA-N
  GI50: > 100 µM (inactive)
A498
  GI50: > 100 µM (inactive)
UACC-62
  GI50: > 100 µM (inactive)
Hs-578T
  GI50: > 100 µM (inactive)
MDA-MB-435
  GI50: > 100 µM (inactive)
SN12C
  GI50: > 100 µM (inactive)
RPMI-8226
  GI50: > 100 µM (inactive)
ACHN
  GI50: > 100 µM (inactive)
TK-10
  GI50: > 100 µM (inactive)
HT-29
  GI50: > 100 µM (inactive)
